Measured values from US10688197B2, “Non-alcoholic fatty liver regulator 14-3-3 protein” (Korea University Research and Business Foundation, priority 2015, dated 2020).

Key:
HepG2 cells = experiment: Triglyceride colorimetric assay in HepG2 cells; assay type: cell-based, human; conditions: HepG2, overexpression, 200 μM oleic acid 72 hours, FIG. 10A
Description: HepG2 cells and primary mouse hepatocytes were separately seeded in a 6-well plate at a density of 4×10^5 cells per each well, and then transfected with GFP-14-3-3β DNA (1 μg) or GFP-14-3-3γ DNA (1 μg) and si-14-3-3β (10 μM, Santa Cruz) or si-14-3-3γ (10 μM, Santa Cruz) using an E-fection plus reagent (Lugen). A ratio of DNA to the E-fection plus reagent was 1:2, and this method was performed according to a manufacturer's manual. After transfection, the cells were treated with 200 μM of oleic acid (OA) for 72 hours, and the amount of triglycerides was measured using a triglyceride colorimetric assay kit (Cayman Chemical). The corresponding cells were washed with ice-cold PBS and then scraped using a standard diluent assay reagent, the scrapping process was repeated using a sonicator 20 times to lyse the cells, and the lysed cells were reacted with an enzyme buffer solution for 15 minutes, followed by measurement using an ELISA reader (Bio-Rad Laboratories, Inc) at a wavelength of 550 nm.

[1] = molecular target: T1, binding between PPARγ2 and 14-3-3β (Homo sapiens, UniProt P37231); experiment: GST-pull down assay, binding between PPARγ2 and 14-3-3β (HEK-293T)
T1 construct: expressed in transfected cells; host or cells: HEK-293T
T1 sequence (P37231 1-505): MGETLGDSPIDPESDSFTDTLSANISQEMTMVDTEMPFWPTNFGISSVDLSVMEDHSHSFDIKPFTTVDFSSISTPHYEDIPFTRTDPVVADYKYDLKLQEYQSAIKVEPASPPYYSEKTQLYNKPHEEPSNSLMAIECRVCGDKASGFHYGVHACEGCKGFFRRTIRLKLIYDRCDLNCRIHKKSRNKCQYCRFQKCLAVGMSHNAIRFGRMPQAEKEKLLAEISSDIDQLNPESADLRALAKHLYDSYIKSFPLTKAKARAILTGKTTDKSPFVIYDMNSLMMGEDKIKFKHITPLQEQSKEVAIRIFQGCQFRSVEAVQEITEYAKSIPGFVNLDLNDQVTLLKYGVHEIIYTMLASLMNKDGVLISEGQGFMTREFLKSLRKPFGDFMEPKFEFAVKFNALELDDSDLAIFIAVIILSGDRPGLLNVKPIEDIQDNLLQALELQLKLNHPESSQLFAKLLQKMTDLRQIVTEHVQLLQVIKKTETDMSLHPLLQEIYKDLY
T1 sequence (P31946 1-246 partner): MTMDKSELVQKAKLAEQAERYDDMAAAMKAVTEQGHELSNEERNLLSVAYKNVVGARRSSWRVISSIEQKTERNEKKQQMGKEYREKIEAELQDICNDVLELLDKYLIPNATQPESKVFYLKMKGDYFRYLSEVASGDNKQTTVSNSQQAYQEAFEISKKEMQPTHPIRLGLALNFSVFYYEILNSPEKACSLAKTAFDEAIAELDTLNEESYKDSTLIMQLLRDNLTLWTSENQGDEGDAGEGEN
Description: After transfection, […], washed with ice-cold PBS, and lysed using 500 μl/well of a lysis buffer (150 mM NaCl, 1 mM EDTA, 1% Nonidet P-40, 5% glycerol, 25 mM tris-HCl, pH 7.5, protease inhibitor added), and the lysed cells were centrifuged at 10,000×g and 4° C. for 10 minutes to extract proteins. Thereafter, 1,000 μg of the proteins was reacted with 20 μl of glutathione Sepharose 4B beads (GE Healthcare, Buckinghamshire, UK) for 6 hours, and then washing of the beads with 1 ml of ice-cold PBS was repeated 5 times, and the beads were boiled at 100° C. for 10 minutes, followed by 10% SDS-PAGE gel separation and western blotting. A ratio of GST antibodies (Santa Cruz) to Myc antibodies (self-production) was 1:3000. The detection of each protein was performed using West Pico ECL (Thermo scientific, Rockford, Ill.) and identified in a darkroom.
After transfection, […], washed with ice-cold PBS, and lysed using 500 μl/well of a lysis buffer (150 mM NaCl, 1 mM EDTA, 1% Nonidet P-40, 5% glycerol, 25 mM tris-HCl, pH 7.5, protease inhibitor added), and the lysed cells were centrifuged at 10,000×g and 4° C. for 10 minutes to extract proteins. […]

Row | binding between 14-3-3β and PPARγ2 ([1]; expression amount of 14-3-3γ increased (HA-14-3-3γ DNA 2 and 4 μg), FIG. 5A) | binding between PPARγ2 and 14-3-3β ([1]; 200 μM oleic acid 72 hours, FIG. 8A) | Molecule | triglyceride accumulation (HepG2 cells)
1 |  |  | 14-3-3β: 14-3-3 isoform protein overexpressed by DNA transfection; increases the transcriptional activity of PPARγ2 by binding to PPARγ2 | further increased
2 | reduced |  | 14-3-3γ: 14-3-3 isoform protein overexpressed by DNA transfection; decreases the transcriptional activity of PPARγ2; proposed active ingredient | reduced
3 |  | increased | CCCCCCCC/C=C\CCCCCCCC(=O)O [oleic acid] | 
